From PubChem BioAssay (NCI)
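Method: 48-hour compound exposure of cells in 96-well plates, five concentrations, linear interpolation of endpoints. Definition used: TGI = concentration required for complete inhibition of growth.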

Columns and labels:
Test in all cases: NCI tumour cell line growth inhibition, 48 h
SR leukemia = tested on: SR leukemia
SF-295 CNS = tested on: SF-295 CNS
NCI-H23 lung = tested on: NCI-H23 lung
COLO 205 colon = tested on: COLO 205 colon
CCRF-CEM leukemia = tested on: CCRF-CEM leukemia
SF-539 CNS = tested on: SF-539 CNS
A498 renal = tested on: A498 renal
UACC-62 melanoma = tested on: UACC-62 melanoma
T-47D breast = tested on: T-47D breast
HOP-92 NSCLC = tested on: HOP-92 NSCLC
OVCAR-8 ovarian = tested on: OVCAR-8 ovarian
MCF7 breast = tested on: MCF7 breast
TK-10 renal = tested on: TK-10 renal
A549 NSCLC = tested on: A549 NSCLC
SK-MEL-5 melanoma = tested on: SK-MEL-5 melanoma
PC-3 prostate = tested on: PC-3 prostate
HT29 colon = tested on: HT29 colon
HL-60(TB) leukemia = tested on: HL-60(TB) leukemia
NCI-H460 lung = tested on: NCI-H460 lung
MDA-N = tested on: MDA-N
RPMI-8226 leukemia = tested on: RPMI-8226 leukemia
BT-549 breast = tested on: BT-549 breast
ACHN renal = tested on: ACHN renal
HCT-116 colon = tested on: HCT-116 colon
MALME-3M melanoma = tested on: MALME-3M melanoma
786-0 renal = tested on: 786-0 renal
SK-MEL-28 melanoma = tested on: SK-MEL-28 melanoma
UACC-257 melanoma = tested on: UACC-257 melanoma
OVCAR-3 ovarian = tested on: OVCAR-3 ovarian
M14 melanoma = tested on: M14 melanoma
NCI-H522 lung = tested on: NCI-H522 lung
MDA-MB-231 breast = tested on: MDA-MB-231 breast
UO-31 renal = tested on: UO-31 renal
CAKI-1 renal = tested on: CAKI-1 renal
NCI-H226 lung = tested on: NCI-H226 lung
SNB-19 CNS = tested on: SNB-19 CNS
SK-MEL-2 melanoma = tested on: SK-MEL-2 melanoma
OVCAR-4 ovarian = tested on: OVCAR-4 ovarian
NCI/ADR-RES ovarian = tested on: NCI/ADR-RES ovarian
SN12C renal = tested on: SN12C renal
U251 CNS = tested on: U251 CNS
HOP-62 NSCLC = tested on: HOP-62 NSCLC
SK-OV-3 ovarian = tested on: SK-OV-3 ovarian
K-562 leukemia = tested on: K-562 leukemia
EKVX NSCLC = tested on: EKVX NSCLC
HCT-15 colon = tested on: HCT-15 colon
LOX IMVI melanoma = tested on: LOX IMVI melanoma
MOLT-4 leukemia = tested on: MOLT-4 leukemia
SF-268 CNS = tested on: SF-268 CNS
KM12 colon = tested on: KM12 colon
MDA-MB-435 = tested on: MDA-MB-435
HCC-2998 colon = tested on: HCC-2998 colon
OVCAR-5 ovarian = tested on: OVCAR-5 ovarian
IGROV1 ovarian = tested on: IGROV1 ovarian
HS 578T breast = tested on: HS 578T breast
SW-620 colon = tested on: SW-620 colon
DU-145 prostate = tested on: DU-145 prostate

For `Cn1c(=O)c2c(ncn2CCNC(CO)C(O)c2ccc([N+](=O)[O-])cc2)n(C)c1=O` (configuration not stated), the TGI (SR leukemia) was greater than 100 µM, the TGI (SF-295 CNS) was greater than 100 µM and the TGI (NCI-H23 lung) was greater than 100 µM. The TGI (COLO 205 colon) was greater than 100 µM, the TGI (CCRF-CEM leukemia) was greater than 100 µM and the TGI (SF-539 CNS) was greater than 100 µM. The TGI (A498 renal) was greater than 100 µM, the TGI (UACC-62 melanoma) was greater than 100 µM and the TGI (T-47D breast) was greater than 100 µM. For the same compound, the TGI (HOP-92 NSCLC) was greater than 100 µM, the TGI (OVCAR-8 ovarian) was greater than 100 µM and the TGI (MCF7 breast) was greater than 100 µM. The TGI (TK-10 renal) was greater than 100 µM, the TGI (A549 NSCLC) was greater than 100 µM and the TGI (SK-MEL-5 melanoma) was greater than 100 µM. For the same compound, the TGI (PC-3 prostate) was greater than 100 µM, the TGI (HT29 colon) was greater than 100 µM and the TGI (HL-60(TB) leukemia) was greater than 100 µM. It also gave a TGI (NCI-H460 lung) greater than 100 µM, a TGI (MDA-N) greater than 100 µM and a TGI (RPMI-8226 leukemia) greater than 100 µM. The TGI (BT-549 breast) was greater than 100 µM, the TGI (ACHN renal) was greater than 100 µM and the TGI (HCT-116 colon) was greater than 100 µM. For the same compound, the TGI (MALME-3M melanoma) was greater than 100 µM, the TGI (786-0 renal) was greater than 100 µM and the TGI (SK-MEL-28 melanoma) was greater than 100 µM. The TGI (UACC-257 melanoma) was greater than 100 µM, the TGI (OVCAR-3 ovarian) was greater than 100 µM and the TGI (M14 melanoma) was greater than 100 µM. It also gave a TGI (NCI-H522 lung) greater than 100 µM, a TGI (MDA-MB-231 breast) greater than 100 µM and a TGI (UO-31 renal) greater than 100 µM. It also gave a TGI (CAKI-1 renal) greater than 100 µM, a TGI (NCI-H226 lung) greater than 100 µM and a TGI (SNB-19 CNS) greater than 100 µM. The TGI (SK-MEL-2 melanoma) was greater than 100 µM, the TGI (OVCAR-4 ovarian) was greater than 100 µM and the TGI (NCI/ADR-RES ovarian) was greater than 100 µM. For the same compound, the TGI (SN12C renal) was greater than 100 µM, the TGI (U251 CNS) was greater than 100 µM and the TGI (HOP-62 NSCLC) was greater than 100 µM. The TGI (SK-OV-3 ovarian) was greater than 100 µM, the TGI (K-562 leukemia) was greater than 100 µM and the TGI (EKVX NSCLC) was greater than 100 µM. The TGI (HCT-15 colon) was greater than 100 µM, the TGI (LOX IMVI melanoma) was greater than 100 µM and the TGI (MOLT-4 leukemia) was greater than 100 µM. For the same compound, the TGI (SF-268 CNS) was greater than 100 µM, the TGI (KM12 colon) was greater than 100 µM and the TGI (MDA-MB-435) was greater than 100 µM.

With `CCN(CC)Cc1ccc(C(=S)Nc2ccc(Cl)cc2)s1` the TGI (HCC-2998 colon) was 26 µM, the TGI (SR leukemia) was 24.7 µM and the TGI (SF-295 CNS) was 25.2 µM. The TGI (NCI-H23 lung) was 9.34 µM, the TGI (COLO 205 colon) was 5.2 µM and the TGI (CCRF-CEM leukemia) was 34.1 µM. The TGI (SF-539 CNS) was 31.6 µM, the TGI (A498 renal) was 25.8 µM and the TGI (UACC-62 melanoma) was 23 µM. The TGI (T-47D breast) was 34.2 µM, the TGI (OVCAR-8 ovarian) was 18.2 µM and the TGI (MCF7 breast) was 25.5 µM. For the same compound, the TGI (A549 NSCLC) was 25.4 µM, the TGI (SK-MEL-5 melanoma) was 16.9 µM and the TGI (PC-3 prostate) was 28.6 µM. The TGI (HT29 colon) was 12 µM, the TGI (HL-60(TB) leukemia) was 10.5 µM and the TGI (NCI-H460 lung) was 27.9 µM. For the same compound, the TGI (MDA-N) was 23.6 µM, the TGI (RPMI-8226 leukemia) was 39.6 µM and the TGI (BT-549 breast) was 19.7 µM. For the same compound, the TGI (ACHN renal) was 28.3 µM, the TGI (HCT-116 colon) was 22.9 µM and the TGI (786-0 renal) was 26.4 µM. For the same compound, the TGI (SK-MEL-28 melanoma) was 20.8 µM, the TGI (UACC-257 melanoma) was 18.1 µM and the TGI (OVCAR-5 ovarian) was 23.7 µM. It also gave a TGI (OVCAR-3 ovarian) of 37.7 µM, a TGI (M14 melanoma) of 14.2 µM and a TGI (NCI-H522 lung) of 25 µM. The TGI (UO-31 renal) was 23.5 µM, the TGI (CAKI-1 renal) was 26.2 µM and the TGI (IGROV1 ovarian) was 24.1 µM. The TGI (SNB-19 CNS) was 31.6 µM, the TGI (SK-MEL-2 melanoma) was 32.1 µM and the TGI (OVCAR-4 ovarian) was 34.6 µM. For the same compound, the TGI (NCI/ADR-RES ovarian) was 25 µM, the TGI (U251 CNS) was 26.2 µM and the TGI (HS 578T breast) was 32.5 µM. It also gave a TGI (HOP-62 NSCLC) of 32.1 µM, a TGI (SW-620 colon) of 36.8 µM and a TGI (SK-OV-3 ovarian) of 29.7 µM. It also gave a TGI (K-562 leukemia) of 18.9 µM, a TGI (EKVX NSCLC) of 19.4 µM and a TGI (HCT-15 colon) of 23 µM. For the same compound, the TGI (LOX IMVI melanoma) was 16.2 µM, the TGI (DU-145 prostate) was 29.7 µM and the TGI (MOLT-4 leukemia) was 34.4 µM. For the same compound, the TGI (SF-268 CNS) was 30 µM, the TGI (KM12 colon) was 26.6 µM and the TGI (MDA-MB-435) was 22.7 µM.
